# Data as given in patent publication US20230348418A1, “ISOINDOLINONE COMPOUNDS” (Monte Rosa Therapeutics, Inc., priority 2021, published 2023).
# pIC50: −log10 of the molar value. Read-outs that look alike come from different tables or passages of the source.
# Biological target: T1, Full length wild-type cereblon CRBN (Homo sapiens, UniProt Q96SW2)
# T1 construct: Full length wild-type cereblon CRBN (80.0 nM, 10 μL) was incubated in assay buffer
# Assay: Fluorescence polarization (FP) assay, cereblon binding
# Source text: Compound activity was monitored in a fluorescence polarization (FP) homogeneous assay using 1-[5-({2-[2-(2-{[2-(2,6-dioxopiperidin-3-yl)-1,3-dioxo-2,3-dihydro-1H-isoindol-4-yl]oxy}acetamido)ethoxy]ethyl}carbamoyl)pentyl]-3,3-dimethyl-2-[(1E,3E)-5-[(2E)-1,3,3-trimethyl-5-sulfo-2,3-dihydro-1H-indol-2-ylidene]penta-1,3-dien-1-yl]-3H-indol-1-ium-5-sulfonate as a fluorescent probe. Unless otherwise stated, all reagents were purchased from Sigma Aldrich. […] Full length wild-type cereblon CRBN (80.0 nM, 10 μL) was incubated in assay buffer containing 20 mM HEPES (pH 8.0), […], 0.5 mM TCEP and 0.05% Tween 20 in the presence or absence of compound (300 nL). Inhibitors were stored as 10 mM DMSO stocks in an inert environment (low humidity, dark, low oxygen, room temperature) using the Storage Pod System. […] Following incubation at room temperature for 30 min, the assay was initiated by dispensing the probe to a final concentration of […] (2.5 nL of a 20 μM stock) using the Echo E5XX. […] The FP signal was subsequently normalized to the no-compound control (i.e., DMSO). Analysis and IC50 values were derived using Dotmatics (Dotmatics UK) software.
# [1] = bounds stated in the text lists b2059-b2061, read-out: IC50 value
# [2] = cereblon binding, class code, read-out: rFP IC50
# [3] = IC50 value, bounds stated in the text lists b2059-b2061
# T1 sequence (Q96SW2 whole entry): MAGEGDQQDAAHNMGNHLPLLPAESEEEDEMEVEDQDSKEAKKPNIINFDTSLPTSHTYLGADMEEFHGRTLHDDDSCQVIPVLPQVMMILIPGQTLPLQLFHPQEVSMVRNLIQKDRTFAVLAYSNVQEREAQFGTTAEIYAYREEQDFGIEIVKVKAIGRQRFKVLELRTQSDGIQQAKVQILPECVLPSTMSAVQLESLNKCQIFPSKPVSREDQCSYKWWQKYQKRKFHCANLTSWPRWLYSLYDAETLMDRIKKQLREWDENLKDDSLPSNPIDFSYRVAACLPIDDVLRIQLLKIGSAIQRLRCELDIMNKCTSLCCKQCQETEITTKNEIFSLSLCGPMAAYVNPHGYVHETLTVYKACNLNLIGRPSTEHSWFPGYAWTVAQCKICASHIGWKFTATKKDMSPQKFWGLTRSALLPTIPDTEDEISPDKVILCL
pIC50 [1],pIC50 [2],SMILES,pIC50 [3],"IC50 (rFP IC50 [nM], cereblon binding, class code) [nM]"
> 5.96,,O=C1CCC(N2Cc3ccc(COC(=O)Nc4cnc(N5CCCCC5)cn4)cc3C2=O)C(=O)N1 (centres unmarked) [Compound 94],,
> 5.77,5.77 to 5.96,"Cc1cc(F)cc(NC(=O)OCc2ccc3c(c2)C(=O)N(C2CCC(=O)NC2=O)C3)c1 (centres unmarked) [Compound 146, (2-(2,6-dioxopiperidin-3-yl)-3-oxoisoindolin-5-yl)methyl (3-fluoro-5-methylphenyl) carbamate]",,
> 5.96,,O=C1CCC(N2Cc3ccc(COC(=O)Nc4ccc(N5CCC(F)(F)CC5)nc4)cc3C2=O)C(=O)N1 (centres unmarked) [Compound 78],,
> 5.77,5.77 to 5.96,O=C1CCC(N2Cc3ccc(COC(=O)Nc4cccc(OC(F)F)c4)cc3C2=O)C(=O)N1 (centres unmarked) [Compound 5],,
> 5.77,5.96 to 6.30,COc1ccccc1CNC(=O)OCc1ccc2c(c1)C(=O)N(C1CCC(=O)NC1=O)C2 (centres unmarked) [Compound 97],,
> 5.96,5.96 to 6.30,"Cc1cc(F)c(NC(=O)OCc2ccc3c(c2)C(=O)N(C2CCC(=O)NC2=O)C3)cc1Cl (centres unmarked) [Compound 141, (2-(2,6-dioxopiperidin-3-yl)-3-oxoisoindolin-5-yl)methyl (5-chloro-2-fluoro-4-methylphenyl)carbamate]",,
> 5.77,5.77 to 5.96,O=C1CCC(N2Cc3ccc(COC(=O)Nc4cc(Cl)cc(OC5CCNC5)c4)cc3C2=O)C(=O)N1 (centres unmarked) [Compound 20],,
,,CC(C)(C)c1cc(NC(=O)OCc2ccc3c(c2)C(=O)N(C2CCC(=O)NC2=O)C3)ccn1 (centres unmarked) [Compound 114],> 5.96,
> 5.96,,CCc1cc(NC(=O)OCc2ccc3c(c2)C(=O)N(C2CCC(=O)NC2=O)C3)ccn1 (centres unmarked) [Compound 63],,
> 5.77,5.96 to 6.30,O=C1CCC(N2Cc3ccc(COC(=O)N4CCCC4)cc3C2=O)C(=O)N1 (centres unmarked) [Compound 26],,
,,O=C1CCC(N2Cc3ccc(COC(=O)Nc4ccnc(-c5ccccc5)c4)cc3C2=O)C(=O)N1 (centres unmarked) [Compound 149],> 5.96,
> 5.77,5.77 to 5.96,O=C1CCC(N2Cc3ccc(COC(=O)Nc4ccc5c(c4)CCC5)cc3C2=O)C(=O)N1 (centres unmarked) [Compound 56],,
> 5.96,,CN1CCC(Oc2cc(Cl)cc(NC(=O)OCc3ccc4c(c3)C(=O)N(C3CCC(=O)NC3=O)C4)c2)C1 (centres unmarked) [Compound 46],,
> 5.77,5.96 to 6.30,O=C1CCC(N2Cc3ccc(COC(=O)NC4CCCC4)cc3C2=O)C(=O)N1 (centres unmarked) [Compound 29],,
> 5.96,,O=C1CCC(N2Cc3ccc(COC(=O)N4CCN(c5ccccc5)CC4)cc3C2=O)C(=O)N1 (centres unmarked) [Compound 36],,
> 5.77,5.96 to 6.30,CC1(c2ccc(NC(=O)OCc3ccc4c(c3)C(=O)N(C3CCC(=O)NC3=O)C4)cc2)COC1 (centres unmarked) [Compound 62],,
> 5.77,5.96 to 6.30,O=C1CCC(N2Cc3ccc(COC(=O)Nc4cccc(OC5CC5)c4)cc3C2=O)C(=O)N1 (centres unmarked) [Compound 93],,
> 5.77,5.96 to 6.30,COc1cc(NC(=O)OCc2ccc3c(c2)C(=O)N(C2CCC(=O)NC2=O)C3)cnc1C (centres unmarked) [Compound 51],,
> 5.77,5.96 to 6.30,O=C1CCC(N2Cc3ccc(COC(=O)Nc4ccc(C5CC5)cc4)cc3C2=O)C(=O)N1 (centres unmarked) [Compound 39],,
> 5.96,,CN1CCC(COc2cc(Cl)cc(NC(=O)OCc3ccc4c(c3)C(=O)N(C3CCC(=O)NC3=O)C4)c2)C1 (centres unmarked) [Compound 40],,
> 5.96,,CC1CCCN1c1ccc(NC(=O)OCc2ccc3c(c2)C(=O)N(C2CCC(=O)NC2=O)C3)cn1 (centres unmarked) [Compound 74],,
> 5.77,5.96 to 6.30,CCc1cc(NC(=O)OCc2ccc3c(c2)C(=O)N(C2CCC(=O)NC2=O)C3)cnc1C (centres unmarked) [Compound 55],,
> 5.77,5.96 to 6.30,Cc1ncc(NC(=O)OCc2ccc3c(c2)C(=O)N(C2CCC(=O)NC2=O)C3)cc1OC(F)(F)F (centres unmarked) [Compound 91],,
,,O=C1CCC(N2Cc3ccc(COC(=O)Nc4cc(C(F)(F)F)ns4)cc3C2=O)C(=O)N1 (centres unmarked) [Compound 139],> 5.96,500 to 1100
> 5.77,5.96 to 6.30,Cc1c(Cl)cc(NC(=O)OCc2ccc3c(c2)C(=O)N(C2CCC(=O)NC2=O)C3)cc1CN1CCOCC1 (centres unmarked) [Compound 2],,
> 5.96,5.96 to 6.30,CCc1nscc1NC(=O)OCc1ccc2c(c1)C(=O)N(C1CCC(=O)NC1=O)C2 (centres unmarked) [Compound 147],,

pIC50 [1],pIC50 [2],SMILES,pIC50 [3],"IC50 (rFP IC50 [nM], cereblon binding, class code) [nM]"
> 5.96,,O=C1CCC(N2Cc3ccc(COC(=O)Nc4cc(OC(F)(F)F)ccn4)cc3C2=O)C(=O)N1 (centres unmarked) [Compound 59],,
> 5.77,5.96 to 6.30,O=C1CCC(N2Cc3ccc(COC(=O)Nc4ccc5c(c4)OCC5)cc3C2=O)C(=O)N1 (centres unmarked) [Compound 18],,
> 5.77,5.77 to 5.96,O=C1CCC(N2Cc3ccc(COC(=O)Nc4cc(OCCN5CCOCC5)cc(OC(F)F)c4)cc3C2=O)C(=O)N1 (centres unmarked) [Compound 96],,
> 5.96,,O=C1CCC(N2Cc3ccc(COC(=O)Nc4ccc(C5CC5)nc4)cc3C2=O)C(=O)N1 (centres unmarked) [Compound 80],,
> 5.96,,"Cc1cc(NC(=O)OCc2ccc3c(c2)C(=O)N(C2CCC(=O)NC2=O)C3)cc(C)c1F (centres unmarked) [Compound 124, (2-(2,6-dioxopiperidin-3-yl)-3-oxoisoindolin-5-yl)methyl (4-fluoro-3,5-dimethylphenyl)carbamate]",,
> 5.77,5.96 to 6.30,Cc1c(Cl)cc(NC(=O)OCc2ccc3c(c2)C(=O)N(C2CCC(=O)NC2=O)C3)cc1OCC1CCNC1 (centres unmarked) [Compound 52],,
> 5.77,5.77 to 5.96,"Cc1c(F)cc(NC(=O)OCc2ccc3c(c2)C(=O)N(C2CCC(=O)NC2=O)C3)cc1F (centres unmarked) [Compound 127, (2-(2,6-dioxopiperidin-3-yl)-3-oxoisoindolin-5-yl)methyl (3,5-difluoro-4-methylphenyl)carbamate]",,
> 5.77,5.96 to 6.30,Cc1c(Cl)cc(NC(=O)OCc2ccc3c(c2)C(=O)N(C2CCC(=O)NC2=O)C3)cc1OC1CCN(C)C1 (centres unmarked) [Compound 68],,
> 5.96,,O=C1CCC(N2Cc3ccc(COC(=O)Nc4ccc(N5CCC5)nc4)cc3C2=O)C(=O)N1 (centres unmarked) [Compound 107],,
> 5.77,5.77 to 5.96,COc1ccc(Cl)cc1NC(=O)OCc1ccc2c(c1)C(=O)N(C1CCC(=O)NC1=O)C2 (centres unmarked) [Compound 14],,
> 5.96,5.96 to 6.30,"CC(C)(C)c1ccc(NC(=O)OCc2ccc3c(c2)C(=O)N(C2CCC(=O)NC2=O)C3)c(F)c1 (centres unmarked) [Compound 142, (2-(2,6-dioxopiperidin-3-yl)-3-oxoisoindolin-5-yl)methyl (4-(tert-butyl)-2-fluorophenyl)carbamate]",,
> 5.96,5.96 to 6.30,"CC(C)(C)C12CC(NC(=O)OCc3ccc4c(c3)C(=O)N(C3CCC(=O)NC3=O)C4)(C1)C2 (centres unmarked) [Compound 120, (2-(2,6-dioxopiperidin-3-yl)-3-oxoisoindolin-5-yl)methyl (3-(tert-butyl)bicyclo[1.1.1]pentan-1-yl)carbamate]",,
> 5.96,,"Cc1cc(C#N)cc(NC(=O)OCc2ccc3c(c2)C(=O)N(C2CCC(=O)NC2=O)C3)c1 (centres unmarked) [Compound 112, (2-(2,6-dioxopiperidin-3-yl)-3-oxoisoindolin-5-yl)methyl (3-cyano-5-methylphenyl)carbamate]",,
> 5.96,,"Cc1cc(C)c(F)c(NC(=O)OCc2ccc3c(c2)C(=O)N(C2CCC(=O)NC2=O)C3)c1 (centres unmarked) [Compound 122, (2-(2,6-dioxopiperidin-3-yl)-3-oxoisoindolin-5-yl)methyl (2-fluoro-3,5-dimethylphenyl)carbamate]",,
> 5.96,,"O=C1CCC(N2Cc3ccc(COC(=O)NC45CC(c6ccccc6)(C4)C5)cc3C2=O)C(=O)N1 (centres unmarked) [Compound 126, (2-(2,6-dioxopiperidin-3-yl)-3-oxoisoindolin-5-yl)methyl (3-phenylbicyclo[1.1.1]pentan-1-yl carbamate]",,
> 5.77,5.96 to 6.30,CC(NC(=O)OCc1ccc2c(c1)C(=O)N(C1CCC(=O)NC1=O)C2)c1ccccc1 (centres unmarked) [Compound 102],,
> 5.77,5.96 to 6.30,O=C1CCC(N2Cc3ccc(COC(=O)Nc4cnc(N5CCCCC5)nc4)cc3C2=O)C(=O)N1 (centres unmarked) [Compound 64],,
> 5.96,,CC1CCN(c2ccc(NC(=O)OCc3ccc4c(c3)C(=O)N(C3CCC(=O)NC3=O)C4)cn2)C1 (centres unmarked) [Compound 69],,
> 5.77,5.77 to 5.96,"Cc1cc(Cl)cc(NC(=O)OCc2ccc3c(c2)C(=O)N(C2CCC(=O)NC2=O)C3)c1 (centres unmarked) [Compound 144, (2-(2,6-dioxopiperidin-3-yl)-3-oxoisoindolin-5-yl)methyl (3-chloro-5-methylphenyl)carbamate]",,
> 5.77,5.96 to 6.30,O=C1CCC(N2Cc3ccc(COC(=O)Nc4ccc5c(c4)CCCO5)cc3C2=O)C(=O)N1 (centres unmarked) [Compound 67],,
> 5.77,5.96 to 6.30,Cc1cc(NC(=O)OCc2ccc3c(c2)C(=O)N(C2CCC(=O)NC2=O)C3)cc(C)n1 (centres unmarked) [Compound 7],,
> 5.77,5.96 to 6.30,CC1(C)COc2cc(NC(=O)OCc3ccc4c(c3)C(=O)N(C3CCC(=O)NC3=O)C4)ccc21 (centres unmarked) [Compound 83],,
,,Cc1ccc(NC(=O)OCc2ccc3c(c2)C(=O)N(C2CCC(=O)NC2=O)C3)cc1C (centres unmarked) [Compound 129],> 5.96,
> 5.96,,O=C1CCC(N2Cc3ccc(COC(=O)Nc4cc(Cl)cc(OCC5CCNC5)c4)cc3C2=O)C(=O)N1 (centres unmarked) [Compound 16],,
> 5.77,5.96 to 6.30,COc1cc(Cl)ccc1NC(=O)OCc1ccc2c(c1)C(=O)N(C1CCC(=O)NC1=O)C2 (centres unmarked) [Compound 38],,
